# Results as given in US9789046B2, “Water-based resin nail polish” (LES FINS NETWORK TECHNOLOGY CO., LTD., priority 2015, dated 2017).
# What was measured:
# Assay in all cases: Antifungal activity experiment, 96-pore plate, MTT, OD 570 nm
# Assay type in all cases: cell-based
# Conditions in all cases: MH medium, 37° C., 24 h, read-out: semi-inhibition rate MIC50
# [1] = system: Trichophyton gypsum
# Description: (§1) Bacteria (Trichophyton rubrum, Trichophyton gypsum and flocculent trichomementagrophytes) are suspended in an MH culture medium, the dispersion concentration is about 10^5 cfu·mL−1, the bacterial solution is added onto 96-pore plate (100 μL of the bacterial solution is added into each pore), the culture medium is used as a blank control, DMSO is used for substituting a test material as a negative control, and itraconazole (Xian-Janssen Pharmaceutical Ltd.) is used as a positive control. […] The 96-pore plate is placed into an incubator at 37° C. to be cultured for 24 h, then 25 μL of the prepared solution containing 4 mg of PBS of MTT for each mL is added into each hole, and the solution is cultured for 4 h under a same condition, 100 μL of SDS lysis solution (including 95 mL of triple-distilled, 10 g of SDS, 5 mL of isopropyl alcohol and 0.1 mL of concentrated hydrochloric acid) is added into each pore and then is cultured for 12 h. An enzyme labeling instrument is used for determining an OD value at 570 nm, and a percent inhibition rate is calculated according to the formula equation: […]
# [2] = system: Trichophyton rubrum
# Description: as §1
# [3] = system: flocculent trichomementagrophytes
# Description: as §1
Structure (SMILES),MIC50 [1] [µg/mL],MIC50 [2] [µg/mL],MIC50 [3] [µg/mL]
COc1ccc(-c2cc(=O)c3cc(O)c(OC)c4c3n2OC2OC(C)=C(O)C=C2C4)cc1 (stereo not drawn) [compound of formula I],0.6,0.63,0.82
CCC(C)n1ncn(-c2ccc(N3CCN(c4ccc(OCC5COC(Cn6cncn6)(c6ccc(Cl)cc6Cl)O5)cc4)CC3)cc2)c1=O (stereo not drawn) [itraconazole],0.7,0.63,0.65
